Assay results: patent publication US20210023234A1, “ECTONUCLEOTIDE PYROPHOSPHATE-PHOSPHODIESTERASE (ENPP) CONJUGATES AND USES THEREOF” (AbbVie Inc., priority 2018, published 2021)

Tests used:
human ENPP-1 enzyme [1] = target: T1, human ENPP-1 enzyme (Homo sapiens, UniProt P22413); test: ENPP1 Enzyme Assay with cGAMP Substrate (AMP-Glo); assay type: biochemical; details: 20 μM 2′3′-cGAMP substrate, 5 ng/well enzyme; for inhibition at 10 µM: 10 uM compound; for inhibition at 1 µM: 1 uM compound
T1 construct: purchased R&D Systems
T1 sequence (P22413 1-925): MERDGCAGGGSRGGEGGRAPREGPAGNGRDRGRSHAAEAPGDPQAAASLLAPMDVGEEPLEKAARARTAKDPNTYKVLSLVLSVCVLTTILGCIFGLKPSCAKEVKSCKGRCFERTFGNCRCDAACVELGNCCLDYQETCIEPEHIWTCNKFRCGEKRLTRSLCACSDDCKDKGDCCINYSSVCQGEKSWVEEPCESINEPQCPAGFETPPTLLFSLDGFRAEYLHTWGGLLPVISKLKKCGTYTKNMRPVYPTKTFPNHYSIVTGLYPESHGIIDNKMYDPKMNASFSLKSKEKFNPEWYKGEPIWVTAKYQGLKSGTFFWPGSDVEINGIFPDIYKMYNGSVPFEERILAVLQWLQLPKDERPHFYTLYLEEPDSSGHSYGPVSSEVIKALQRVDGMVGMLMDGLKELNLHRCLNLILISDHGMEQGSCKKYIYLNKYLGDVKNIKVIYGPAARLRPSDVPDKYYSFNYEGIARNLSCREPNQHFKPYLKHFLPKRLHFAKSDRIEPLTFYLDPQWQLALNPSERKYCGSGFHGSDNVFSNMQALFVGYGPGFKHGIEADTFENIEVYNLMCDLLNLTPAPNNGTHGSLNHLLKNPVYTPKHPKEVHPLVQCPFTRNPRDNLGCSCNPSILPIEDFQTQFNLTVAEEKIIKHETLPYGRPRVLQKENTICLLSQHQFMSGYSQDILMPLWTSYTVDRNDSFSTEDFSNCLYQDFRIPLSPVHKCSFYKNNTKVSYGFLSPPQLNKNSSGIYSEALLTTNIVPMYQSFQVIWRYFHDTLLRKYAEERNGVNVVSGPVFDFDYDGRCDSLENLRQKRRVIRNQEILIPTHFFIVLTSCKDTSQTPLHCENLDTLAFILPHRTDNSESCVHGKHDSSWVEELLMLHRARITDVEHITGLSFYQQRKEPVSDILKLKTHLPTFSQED
Text: ENPP1 Enzyme Assay with cGAMP Substrate:
Ectonucleotide pyrophosphatase/phosphodiesterase 1 (ENPP-1) is a transmembrane glycoprotein that hydrolyzes nucleotides and nucleotide derivatives with the formation of nucleoside-5′-monophosphates. ENPP-1 hydrolyzes 2′3′-cGAMP (cGAMP), breaking it down into 5′-AMP and 5′-GMP. The 5′-AMP formed from the reaction is detected using the AMP-Glo® Kit (Promega). The assay kit contains two reagents. The first reagent terminates the enzymatic reaction, removes ATP (using adenylyl cyclase), and converts 5′-AMP produced into ADP (using polyphosphate: AMP phosphotransferase). The second reagent converts ADP to ATP (using adenylate kinase) and generates light from ATP using the luciferin/luciferase reaction. The amount of light measured is proportional to the amount of 5′-AMP produced by ENPP1.
Different concentrations of exemplary ENPP1 inhibitors (synthetic molecules #1-7; see Table 1) were pre-incubated with 5 ng/well of human ENPP-1 enzyme (R&D Systems) for 15 minutes at 37° C. The reaction was initiated by adding 20 μM 2′3′-cGAMP and incubating for 30 minutes at 37° C. The final assay reaction mixture contained a buffer of 50 mM Tris pH 8.0, 250 mM NaCl, 0.5 mM CaCl2, 1 μM ZnCl2 and 1% DMSO. At the end of the incubation, the reaction was stopped by adding 12 μl of AMP-Glo reagent-1 and mixing the reaction uniformly for 5 minutes, followed by incubation at room temperature for one hour. Then 25 μl of AMP Glo reagent-2 was added to the reaction, mixed uniformly with a pipette, and incubated at room temperature for one hour to convert the ADP formed from reagent-1 to ATP and light. The generated light was measured in a Perkin Elmer Victor® instrument. Maximal activity control samples (containing enzyme, substrate, and buffer in the absence of ENPP1 inhibitors: MAX) and background control samples (containing enzyme, substrate, and buffer plus a fully inhibitory concentration (3 μM) of the reference ENPP1 Inhibitor, MV-0000002: MIN) were simultaneously evaluated in order to calculate the percent inhibition at each compound concentration as follows:
% inhibition=(([MAX−MIN]−[COMPOUND−MIN])/[MAX−MIN])*100
The IC50 values for percent inhibition versus compound concentration were determined by fitting the inhibition curves using a four-parameter variable slope model in GraphPad Prism® software. Ki values are derived from the IC50 values using the Cheng-Prusoff equation: […]

human ENPP-1 enzyme [2] = target: T1, human ENPP-1 enzyme; test: ENPP1 Enzyme Assay with TMP-pNP Substrate (absorbance at 405 nm); assay type: biochemical; details: read-out: TMP-pNP: % inhibition at 10 uM; 10 uM compound; 200 μM TMP-pNP substrate; 15 ng/well enzyme
Experimental: ENPP1 Enzyme Assay with TMP-pNP Substrate:
ENPP-1 hydrolyzes thymidine 5′monophosphate p-nitrophenyl ester (TMP-pNP) to nucleotide-5′-monophosphate and p-nitrophenol, which is a chromogenic product. The amount of p-nitrophenol product formed is measured using its absorbance at 405 nm, which is directly proportional to enzyme activity. Different concentrations of inhibitors (synthetic molecules #1-7; see Table 1) were pre-incubated with 15 ng/well of human ENPP-1 enzyme (R&D Systems) for 15 minutes at 37° C. The reaction was initiated by adding 200 μM TMP-pNP and incubating for 10 minutes at 37° C. […] The amount of product formed was measured directly ina Tecan® spectrophotometer. Maximal activity control samples (containing enzyme, substrate, and buffer in the absence of ENPP1 inhibitors: MAX) and background control samples (containing enzyme, substrate, and buffer plus a fully inhibitory concentration (3 μM) of the reference ENPP1 Inhibitor, MV-0000002: MIN) are simultaneously evaluated in order to calculate the percent inhibition at each compound concentration as follows: […]
The IC50 values for percent inhibition versus compound concentration were determined by fitting the inhibition curves (percent inhibition versus inhibitor concentration) using a four-parameter variable slope model in GraphPad Prism® software. […]

inhibition at 10 µM (human ENPP-1 enzyme [1]) [%] | inhibition at 10 µM (human ENPP-1 enzyme [2]) [%] | inhibition at 1 µM (human ENPP-1 enzyme [1]) [%] | Compound
≥ 75 | – | – | Cn1ncc2c(N3CCC(CCNS(N)(=O)=O)CC3)ncnc21 [compound 3, N-(2-(1-(1-methyl-1H-pyrazolo[3,4-d]pyrimidin-4-yl)piperidin-4-yl)ethyl)sulfonic amide]
≥ 75 | – | – | COc1cc2ncnc(NCCc3cccc(NS(N)(=O)=O)c3)c2cc1OC [compound 7, N-(3-(2-((6,7-dimethoxyquinazolin-4-yl)amino)ethyl)phenyl)sulfonic amide]
≥ 75 | ≥ 75 | – | COc1cc2ncnc(N3CCC4(CC3)CN(S(N)(=O)=O)C4)c2cc1OC [compound 5, 7-(6,7-dimethoxyquinazolin-4-yl)-2,7-diazaspiro[3.5]nonane-2-sulfonamide]
– | ≥ 75 | ≥ 75 | COc1cc2ncc(C(N)=O)c(N3CCC(CCNS(N)(=O)=O)CC3)c2cc1OC [compound 2, 6,7-dimethoxy-4-(4-(2-(sulfamoylamino)ethyl)piperidin-1-yl)quinoline-3-carboxamide]
– | – | ≥ 75 | COc1cc2ncnc(N3CCc4c(cccc4S(N)(=O)=O)C3)c2cc1OC [compound 6, 2-(6,7-dimethoxyquinazolin-4-yl)-1,2,3,4-tetrahydroisoquinoline-5-sulfonamide]
